Patent US20170360747A1, “USE OF ZILEUTON FOR THE TREATMENT OF NASAL POLYPS IN CYSTIC FIBROSIS PATIENTS” (CORNERSTONE THERAPEUTICS INC., priority 2011, published 2017)

Tests used:
[1] = tested on: coughing in patient with cystic fibrosis and chronic sinusitis; assay: Case report Example 2: cystic fibrosis patient with chronic sinusitis and coughing; type: in vivo, human
Procedure: Patient failed medical treatment, so they underwent endoscopic sinus surgery. Patient's sinus culture has grown MRSA and Pseudomonas. Patient initially did well after the surgery but was readmitted for pulmonary exacerbation. […] Patient was treated with ciprofloxacin for Pseudomonas. […] Nasal endoscopy was not performed in the child due to their young age. The patient was then treated with zileuton 600 mg BID after a normal liver function test. Patient's coughing improved with the zileuton treatment.

[2] = tested on: nasal polyposis in patient with cystic fibrosis; assay: Case report Example 1: cystic fibrosis patient with bilateral nasal polyposis; type: in vivo, human
Procedure: A patient has a history of cystic fibrosis and chronic sinusitis. The patient complained of hyposmia and nasal congestion. […] Culture of the sinuses grew out Pseudomonas. Patient was prescribed ciprofloxacin per the sinus culture. […] Prior to prescribing oral zileuton, a liver function test was performed that was normal. Patient was given zileuton 1200 mg BID. Two months later patient came back with improved nasal congestion and smell. […] Since the patient's symptoms improved, the zileuton was eventually discontinued. After a few months the patient's sinus infection returned. Patient was placed on oral ciprofloxacin.

5-lipoxygenase = target: T1, 5-lipoxygenase (Homo sapiens, UniProt P09917); details: statement 'recently been found', no data given; cited from earlier work
T1 sequence (P09917 1-674): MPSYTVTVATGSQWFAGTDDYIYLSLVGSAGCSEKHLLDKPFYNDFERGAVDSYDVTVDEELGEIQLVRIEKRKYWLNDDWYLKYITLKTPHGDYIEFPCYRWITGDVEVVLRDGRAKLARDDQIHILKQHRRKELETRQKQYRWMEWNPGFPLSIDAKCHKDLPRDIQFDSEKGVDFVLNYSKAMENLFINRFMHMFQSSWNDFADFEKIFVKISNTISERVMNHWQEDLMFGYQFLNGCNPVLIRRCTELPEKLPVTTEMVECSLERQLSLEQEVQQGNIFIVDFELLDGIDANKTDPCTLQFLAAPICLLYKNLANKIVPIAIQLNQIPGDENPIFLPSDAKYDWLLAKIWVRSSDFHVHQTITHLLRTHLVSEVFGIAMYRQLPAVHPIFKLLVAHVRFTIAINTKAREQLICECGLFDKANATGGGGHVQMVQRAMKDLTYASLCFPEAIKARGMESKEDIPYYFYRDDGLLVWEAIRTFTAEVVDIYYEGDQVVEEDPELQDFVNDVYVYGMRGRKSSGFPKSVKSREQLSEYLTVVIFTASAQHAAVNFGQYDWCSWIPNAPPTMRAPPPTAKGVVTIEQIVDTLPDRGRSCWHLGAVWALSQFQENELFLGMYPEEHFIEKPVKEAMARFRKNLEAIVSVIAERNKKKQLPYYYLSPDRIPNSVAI

[3] = treatments given before zileuton (ciprofloxacin for Pseudomonas; inhaled dornase alfa)
[4] = zileuton 1200 mg BID oral, two months later, one patient

O=C(O)c1cn(C2CC2)c2cc(N3CCNCC3)c(F)cc2c1=O [ciprofloxacin]
coughing [1, 3]: initially improved but gradually returned
nasal symptoms after return of sinus infection ([2]; oral ciprofloxacin, after zileuton was discontinued): initial improvement but eventually had return of their nasal symptoms

C[C@H](c1cc2ccccc2s1)N(O)C(N)=O [(R)-zileuton]
efficacy in inhibiting 5-lipoxygenase activity, compared between enantiomers and racemate (5-lipoxygenase): more efficacious than either of (S)-zileuton and racemic zileuton

CC(c1cc2ccccc2s1)N(O)C(N)=O (racemic) [zileuton, (±)-1-(1-Benzo[b]thien-2-ylethyl)-1-hydroxyurea]
coughing ([1]; zileuton 600 mg BID, one patient): improved
nasal congestion and smell [2, 4]: improved
nasal endoscopy: polyps [2, 4]: decreased polyps
nasal endoscopy: purulence ([2]; zileuton 1200 mg BID oral, two months later, prescribed ciprofloxacin not taken): no purulence
adverse effect: coughing ([2]; zileuton 1200 mg BID, dose then decreased to 600 mg BID): increased coughing

B1: dornase alfa (protein, UniProt P24855 23-282, looked up)
Deoxyribonuclease-1: LKIAAFNIQTFGETKMSNATLVSYIVQILSRYDIALVQEVRDSHLTAVGKLLDNLNQDAPDTYHYVVSEPLGRNSYKERYLFVYRPDQVSAVDSYYYDDGCEPCGNDTFNREPAIVRFFSRFTEVREFAIVPLHAAPGDAVAEIDALYDVYLDVQEKWGLEDVMLMGDFNAGCSYVRPSQWSSIRLWTSPTFQWLIPDSADTTATPTHCAYDRIVVAGMLLRGAVVPDSALPFNFQAAYGLSDQLAQAISDHYPVEVMLK
notes: inhaled dornase alfa, part of aggressive medical treatment
coughing [1, 3]: continued to have coughing
